Reference: US10253069B2, “Compositions and methods for regulating arterial tone” (University of Virginia Patent Foundation, priority 2012, dated 2019)

Biological target: T1, eNOS/Hb α interaction (Homo sapiens, UniProt P29474)
T1 construct: purchased Origene
T1 sequence (P29474 2-1203 limits assumed): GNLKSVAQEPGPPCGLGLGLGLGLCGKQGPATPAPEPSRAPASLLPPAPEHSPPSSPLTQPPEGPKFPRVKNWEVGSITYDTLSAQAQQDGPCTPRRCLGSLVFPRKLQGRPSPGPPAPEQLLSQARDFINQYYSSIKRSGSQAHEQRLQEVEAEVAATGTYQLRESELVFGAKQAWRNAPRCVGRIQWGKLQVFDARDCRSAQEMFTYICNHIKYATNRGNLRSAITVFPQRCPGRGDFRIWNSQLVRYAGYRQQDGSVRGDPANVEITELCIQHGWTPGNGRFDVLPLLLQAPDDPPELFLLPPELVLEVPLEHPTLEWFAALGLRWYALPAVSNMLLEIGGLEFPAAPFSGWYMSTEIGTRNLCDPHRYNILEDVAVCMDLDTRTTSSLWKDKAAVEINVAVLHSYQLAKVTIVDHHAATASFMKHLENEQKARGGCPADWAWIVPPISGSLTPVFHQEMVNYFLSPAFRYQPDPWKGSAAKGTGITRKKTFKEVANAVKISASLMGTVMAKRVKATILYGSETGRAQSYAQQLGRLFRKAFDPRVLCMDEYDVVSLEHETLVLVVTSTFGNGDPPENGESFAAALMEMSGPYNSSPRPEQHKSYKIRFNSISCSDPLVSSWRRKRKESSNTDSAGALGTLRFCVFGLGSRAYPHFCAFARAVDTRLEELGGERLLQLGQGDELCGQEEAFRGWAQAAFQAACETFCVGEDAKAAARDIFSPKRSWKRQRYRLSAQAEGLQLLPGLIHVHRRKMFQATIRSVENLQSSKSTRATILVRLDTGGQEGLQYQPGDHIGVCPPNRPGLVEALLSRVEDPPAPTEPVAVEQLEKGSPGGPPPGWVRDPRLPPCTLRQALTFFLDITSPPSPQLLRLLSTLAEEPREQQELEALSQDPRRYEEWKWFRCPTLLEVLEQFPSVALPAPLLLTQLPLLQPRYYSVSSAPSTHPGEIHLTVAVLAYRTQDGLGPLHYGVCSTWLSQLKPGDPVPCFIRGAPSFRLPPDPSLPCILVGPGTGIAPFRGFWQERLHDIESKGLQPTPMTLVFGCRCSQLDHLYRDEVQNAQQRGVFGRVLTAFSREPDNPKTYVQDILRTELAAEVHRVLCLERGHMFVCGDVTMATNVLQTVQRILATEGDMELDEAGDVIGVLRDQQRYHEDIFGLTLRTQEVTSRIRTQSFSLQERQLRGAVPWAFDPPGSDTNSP
Test: Purified eNOS and Hb α protein interaction (co-immunoprecipitation, Western blot)
Type: binding
Procedure: Purified Flag-eNOS was purchased from Origene and isolated Hb α chains were generated as previously described^9. Co-immunoprecipitation studies were performed by incubating 1 μg of Flag-eNOS with 5 μmol/L of each peptide (tat-only, Scr X or Hb α X) for 30 minutes at 37° C. while shaking. Then, 1 μg of isolated Hb α chains were added to the Flag-eNOS/peptide complex for an additional 30 minutes at 37° C. shaking. Anti-Flag nickel beads, blocked with 1% bovine albumin serum for 1 hour, were added to each condition for an additional hour with agitation. Proteins were washed 3× with PBS for 15 minutes and purified protein-protein complexes were precipitated using a strong magnet. The nickel beads were incubated with 5×SDS PAGE buffer to elute proteins off the beads. Samples were subjected to Western blot analysis to determine peptide-induced disruption of Hb α and eNOS binding.

With “Peptide LSFPTTKTYF (SEQ ID NO:2), first ten amino acids of the Hb α sequence, with HIV-tat tag YGRKKRRQRRR at the N-terminus [Hb α X]” the “eNOS/Hb α interaction” value (5 μmol/L peptide, Flag-eNOS and purified Hb α chains) was “significantly disrupted” and the Inhibition of binding (purified Hb α and eNOS protein) was over 90%.
